Reference: patent US20240246941A1, “SUBSTITUTED 4-(3-AMINOPROP-1-YL)AMINOQUINOLINE ANALOGS AS MODULATORS OF MELANOMA-ASSOCIATED ANTIGEN 11 UBIQUITIN LIGASE” (ST. JUDE CHILDREN'S RESEARCH HOSPITAL, INC., priority 2020, published 2024)

These compounds were tested against MAGE-A11:PCF11 (Homo sapiens (Human), UniProt P43364) (assay: TR-FRET single point screening at 15 μM). Details: single point TR-FRET screening at 15 μM against MAGE-A11:PCF11.
Assay type: binding
Design: unit not given here
Summary of the method: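 Single-point screen at 15 μM (0.25% DMSO) measuring disruption of GST-MAGEA11 (5 nM) binding to FAM-PCF11_4 peptide (200 nM) detected by Tb-anti-GST (5 nM). Buffer 50 mM Tris pH 7.5, 20 mM MgCl2, 0.1 mg/ml BSA, 1 mM DTT; 90 min at ~25 °C; 520/490 nm ratio converted to % inhibition versus controls.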

Sequence of MAGE-A11:PCF11 (P43364 218-429): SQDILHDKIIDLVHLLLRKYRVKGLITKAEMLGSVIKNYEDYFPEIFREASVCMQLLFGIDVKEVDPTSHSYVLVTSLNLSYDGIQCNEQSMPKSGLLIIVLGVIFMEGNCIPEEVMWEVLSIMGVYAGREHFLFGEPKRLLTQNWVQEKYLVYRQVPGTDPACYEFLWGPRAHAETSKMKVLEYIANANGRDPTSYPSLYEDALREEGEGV

Compound | TR-FRET signal
COc1ccc(CN(CCCCNc2ccnc3cc(Cl)ccc23)Cc2ccccc2)cc1F [SJ000520438] | 13.15
Cn1cc(CN(CCCCNc2ccnc3cc(Cl)ccc23)Cc2ccccc2)c2ccccc21 [SJ000520440] | −14.35
COc1ccc(F)c(CN(CCCCNc2ccnc3cc(Cl)ccc23)Cc2ccccc2)c1 [SJ000520441] | 14.55
CCc1ccc(CN(CCCCNc2ccnc3cc(Cl)ccc23)Cc2ccccc2)cc1 [SJ000520443] | 29.91
COc1ccc(C(F)(F)F)cc1CN(CCCCNc1ccnc2cc(Cl)ccc12)Cc1ccccc1 [SJ000520444] | 31.82
Clc1ccc2c(NCCCCN(Cc3ccccc3)Cc3csc4ccccc34)ccnc2c1 [SJ000520446] | 33.98
COc1ccc(OC(F)(F)F)cc1CN(CCCCNc1ccnc2cc(Cl)ccc12)Cc1ccccc1 [SJ000520447] | 26.66
Clc1ccc2c(NCCCCN(Cc3ccccc3)Cc3nccs3)ccnc2c1 [SJ000520448] | −1.698
Cc1ccc(F)cc1CN(CCCCNc1ccnc2cc(Cl)ccc12)Cc1ccccc1 [SJ000520449] | 42.32
FC(F)(F)Oc1ccc(CN(CCCCNc2ccnc3cc(Cl)ccc23)Cc2ccccc2)cc1 [SJ000520451] | 39.87
Clc1ccc2c(NCCCCN(Cc3ccccc3)Cc3cccnc3Br)ccnc2c1 [SJ000520453] | 2.377
FC(F)(F)c1cccc(CN(CCCCNc2ccnc3cc(Cl)ccc23)Cc2ccccc2)c1 [SJ000520455] | 26.38
Cc1csc(CN(CCCCNc2ccnc3cc(Cl)ccc23)Cc2ccccc2)n1 [SJ000520456] | −12.86
FC(F)(F)Oc1cccc(CN(CCCCNc2ccnc3cc(Cl)ccc23)Cc2ccccc2)c1 [SJ000520457] | 33.31
FC(F)(F)Oc1ccccc1CN(CCCCNc1ccnc2cc(Cl)ccc12)Cc1ccccc1 [SJ000520459] | 30.86
Fc1cccc(C(F)(F)F)c1CN(CCCCNc1ccnc2cc(Cl)ccc12)Cc1ccccc1 [SJ000520465] | 28.75
FC(F)(F)c1cc(CN(CCCCNc2ccnc3cc(Cl)ccc23)Cc2ccccc2)ccc1Cl [SJ000520466] | 25.28
COc1ccc2nc3cc(Cl)ccc3c(NCCCNCc3ccc4[nH]ccc4c3)c2c1 [SJ000520914] | −184.2
COc1ccc2nc3cc(Cl)ccc3c(NCCCNCc3c(F)cccc3OC)c2c1 [SJ000520915] | −298.8
COc1ccc2nc3cc(Cl)ccc3c(NCCCNCc3ccoc3)c2c1 [SJ000520916] | −299.4
CCCN(CCC)CCCNc1c2ccc(Cl)cc2nc2ccc(OC)cc12 [SJ000520917] | −288.2

Same assay, conditions: single point TR-FRET screening of quinoline compounds against MAGE-A11:PCF11; 15 μM

Compound | TR-FRET signal
COc1ccc(CN(CCCNc2ccnc3cc(Cl)ccc23)Cc2ccccc2)cc1F [SJ000520437] | 23.65
Cn1cc(CN(CCCNc2ccnc3cc(Cl)ccc23)Cc2ccccc2)c2ccccc21 [SJ000520439] | −9.311
CCc1ccc(CN(CCCNc2ccnc3cc(Cl)ccc23)Cc2ccccc2)cc1 [SJ000520442] | 18.89
COc1ccc(F)c(CN(CCCNc2ccnc3cc(Cl)ccc23)Cc2ccccc2)c1 [SJ000520445] | 4.762
COc1ccc(C(F)(F)F)cc1CN(CCCNc1ccnc2cc(Cl)ccc12)Cc1ccccc1 [SJ000520450] | 23.18
COc1ccc(OC(F)(F)F)cc1CN(CCCNc1ccnc2cc(Cl)ccc12)Cc1ccccc1 [SJ000520452] | 20.44
Clc1ccc2c(NCCCN(Cc3ccccc3)Cc3csc4ccccc34)ccnc2c1 [SJ000520454] | 28.14
Cc1ccc(F)cc1CN(CCCNc1ccnc2cc(Cl)ccc12)Cc1ccccc1 [SJ000520458] | 29.77
FC(F)(F)Oc1ccc(CN(CCCNc2ccnc3cc(Cl)ccc23)Cc2ccccc2)cc1 [SJ000520460] | 25.05
Clc1ccc2c(NCCCN(Cc3ccccc3)Cc3cc4ccccc4o3)ccnc2c1 [SJ000520461] | 5.6
Clc1ccc2c(NCCCN(Cc3ccccc3)Cc3cccnc3Br)ccnc2c1 [SJ000520462] | 9.715
Cc1csc(CN(CCCNc2ccnc3cc(Cl)ccc23)Cc2ccccc2)n1 [SJ000520463] | −10.47
FC(F)(F)Oc1cccc(CN(CCCNc2ccnc3cc(Cl)ccc23)Cc2ccccc2)c1 [SJ000520464] | 27.78
Fc1cccc(C(F)(F)F)c1CN(CCCNc1ccnc2cc(Cl)ccc12)Cc1ccccc1 [SJ000520467] | 22.01
CCCN(CCCNc1ccnc2cc(C(F)(F)F)ccc12)Cc1c[nH]c2ccccc12 [SJ000520468] | 16.16
CCCN(CCCNc1ccnc2cc(C(F)(F)F)ccc12)Cc1cn(C)c2ccccc12 [SJ000520469] | 25.54
CCCN(CCCNc1ccnc2cc(C(F)(F)F)ccc12)Cc1ccccc1OC(F)(F)F [SJ000520470] | 5.934
CCCN(CCCNc1ccnc2cc(C(F)(F)F)ccc12)Cc1cccc(C(F)(F)F)c1 [SJ000520471] | 13.02

Compound | TR-FRET signal
CCCN(CCCNc1ccnc2cc(C(F)(F)F)ccc12)Cc1cccc2c1OCO2 [SJ000520472] | 14.62
CCCN(CCCNc1ccnc2cc(C(F)(F)F)ccc12)Cc1cccc(OC(F)(F)F)c1 [SJ000520473] | 9.085
CCCN(CCCNc1ccnc2cc(C(F)(F)F)ccc12)Cc1ccc(OC(F)(F)F)cc1 [SJ000520474] | 17.38
CCCN(CCCNc1ccnc2cc(C(F)(F)F)ccc12)Cc1cc(F)ccc1OC [SJ000520475] | 15.75
CCCN(CCCNc1ccnc2cc(C(F)(F)F)ccc12)CCC(C)(C)C [SJ000520476] | 32.33
CCCCN(CCC)CCCNc1ccnc2cc(C(F)(F)F)ccc12 [SJ000520477] | 23.58
CCCN(CCCNc1ccnc2cc(C(F)(F)F)ccc12)Cc1cc(Br)cs1 [SJ000520478] | −9.243
CCCN(CCCNc1ccnc2cc(C(F)(F)F)ccc12)Cc1cc2ccccc2o1 [SJ000520479] | −20.41
CCCN(CCCNc1ccnc2cc(C(F)(F)F)ccc12)Cc1cc(OC)ccc1F [SJ000520480] | 11.96
CCCN(CCCNc1ccnc2cc(C(F)(F)F)ccc12)Cc1c(F)cccc1C(F)(F)F [SJ000520481] | 11.47
CCCN(CCCNc1ccnc2cc(C(F)(F)F)ccc12)Cc1cc2ccccc2s1 [SJ000520482] | 13.01
CCCN(CCCNc1ccnc2cc(C(F)(F)F)ccc12)Cc1csc2ccccc12 [SJ000520483] | 19.45
CCCN(CCCNc1ccnc2cc(C(F)(F)F)ccc12)Cc1nc2ccccc2s1 [SJ000520484] | 7.404
CCCN(CCCNc1ccnc2cc(C(F)(F)F)ccc12)Cc1cc(OC(F)(F)F)ccc1OC [SJ000520485] | 5.6
CCCN(CCCNc1ccnc2cc(C(F)(F)F)ccc12)Cc1cc(C(F)(F)F)ccc1OC [SJ000520486] | 8.188
O=[N+]([O-])c1ccc(CNCCCNc2ccnc3cc(Cl)ccc23)s1 [SJ000520912] | 6.284
Clc1ccc2c(NCCCNCc3ccoc3)ccnc2c1 [SJ000520913] | −11.15
CCCN(CCCNc1c2ccc(Cl)cc2nc2ccc(OC)cc12)Cc1ccncc1 [SJ000520918] | −1.797
